Broadly, the Ki is a measure of affinity in units of concentration, obtained from inhibition or displacement.

T1 sequence (Q92847 whole entry): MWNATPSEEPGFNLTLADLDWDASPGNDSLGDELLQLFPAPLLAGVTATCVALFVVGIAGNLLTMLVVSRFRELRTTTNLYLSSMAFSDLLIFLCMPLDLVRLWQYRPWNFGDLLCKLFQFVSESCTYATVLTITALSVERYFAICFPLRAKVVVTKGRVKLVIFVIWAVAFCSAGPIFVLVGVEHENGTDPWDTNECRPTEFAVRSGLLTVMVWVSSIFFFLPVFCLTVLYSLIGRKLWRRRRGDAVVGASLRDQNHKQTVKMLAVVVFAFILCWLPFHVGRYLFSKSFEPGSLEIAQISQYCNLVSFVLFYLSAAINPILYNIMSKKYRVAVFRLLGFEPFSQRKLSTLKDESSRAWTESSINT

One assay concerns the target T1, human growth hormone secretagogue receptor (hGHS-R1a) (Homo sapiens, UniProt Q92847).
T1 construct: purchased PerkinElmer BioSignal #RBHGHSM, lot#1887; host or cells: HEK-293, stably transfected
Put plainly: Competitive radioligand binding assay (ghrelin receptor), [125I]-ghrelin displacement. Particulars: Table 3B; binding at human ghrelin receptor, [125I]-ghrelin displacement; read-out: Ki. The method, then:
The competitive binding assay at the human growth hormone secretagogue receptor (hGHS-R1a) was carried out analogously to assays described in the literature.
Multiscreen Harvest plates-GF/C (Millipore, #MAHFC1H60) • 4. […] Bottom seal (Millipore, #MATAH0P00) • 7. […] Binding Buffer: 25 mM Hepes (pH 7.4), 1 mM CaCl2, 5 mM MgCl2, 2.5 mM EDTA, 0.4% BSA Assay Volumes
Competition experiments were performed in a 300 μl filtration assay format. • 1. 220 μL of membranes diluted in binding buffer • 2. 40 μL of compound diluted in binding buffer • 3. […] Compound Handling
Compounds were provided frozen on dry ice at a stock concentration of 10 mM diluted in 100% DMSO and stored at −80° C. until the day of testing. On the test day, compounds were allowed to thaw at rt O/N and then diluted in assay buffer according to the desired test concentrations.
Plates were sealed with TopSeal-A, vortexed gently and incubated at rt for 30 min. The reaction was arrested by filtering samples through Multiscreen Harvest plates (pre-soaked in 0.5% polyethyleneimine) using a Tomtec Harvester, washed 9 times with 500 μL of cold 50 mM Tris-HCl (pH 7.4, 4° C.), and then plates were air-dried in a fumehood for 30 min. A bottom seal was applied to the plates prior to the addition of 25 μL of MicroScint-0 to each well. […] Results were expressed as counts per minute (cpm).
Data were analyzed by GraphPad Prism (GraphPad Software, San Diego, Calif.) using a variable slope non-linear regression analysis.
Compound structures for Tables 3A, 3B and 3D are presented with the various groups as defined for the general structure of formula I. For Tables 3B and 3D, in all entries, m, n and p are 0; X, Z1 and Z2 are each NH. For Table 3B, R1 is H for all entries. The tethers (T) are illustrated with the bonding to X and Z2 as indicated. The compounds themselves are shown for Table 3C.
• 1. […] Key Aspects of Method • 1. […] Results
Turning to `O=C1NC2(CCCC2)C(=O)NC(Cc2cccc(Cl)c2)C(=O)NCC=Cc2ccccc2OCCNC1Cc1ccc(O)cc1` (stereo not drawn) [compound 301], the Ki is under 100 nM.

As to `CC1C(=O)NC(Cc2ccc(F)cc2)C(=O)NCCC=CCOCCNC(C2CC2)C(=O)N1C` (stereo not drawn) [compound 307], the inhibition constant Ki was in the range of 100 to 10000 nM.

On to `CC1C(=O)NC(Cc2ccsc2)C(=O)NCCCc2ccccc2OCCNC(C2CC2)C(=O)N1C` (stereo not drawn) [compound 310], for which the inhibition constant Ki was under 100 nM.

Staying with this assay, now noted: Table 3E; binding activity at the human ghrelin receptor, class symbols; read-out: Ki.
As for `CC(C)C[C@@H]1NCCOc2ccccc2CCCNC(=O)[C@H](Cc2ccccc2)NC(=O)[C@@H]2CCCN2C1=O` [compound 222], the Ki fell in the range of 1000 to 10000 nM.

In the case of `CC(C)C[C@@H]1NCCOc2ccccc2CCCNC(=O)[C@H](Cc2ccccc2)NC(=O)[C@H]2CCCN2C1=O` [compound 223], the Ki is 1000 to 10000 nM.

Staying with this assay, now noted: Table 4; binding at human ghrelin receptor; TFA salts unless otherwise noted; read-out: Ki.
Take `CCC(C)C1NCCOc2ccccc2CCCNC(=O)C(Cc2cccs2)NC(=O)C(C)N(C)C1=O` (stereo not drawn) [compound 34]: the Ki lay within 10 to 100 nM.

With `CCC(C)C1NCCOc2ccccc2CCNC(=O)C(Cc2ccccc2)NC(=O)C(C)N(C)C1=O` (stereo not drawn) [compound 178], the Ki lay within 100 to 1000 nM.

Still in this assay, the particulars now being: [125I]-ghrelin displacement, hGHS-R1a HEK-293 membranes; read-out: Binding Activity at the Human Ghrelin Receptor (Ki).
For `CCC(C)C1NCCCc2ccccc2CCCNC(=O)C(Cc2ccccc2)NC(=O)C(C)N(C)C1=O` (stereo not drawn) [compound 190], the Ki fell in the range of 10 to 100 nM.

With `CCC(C)C1NCCOc2ccc(C(=N)N)cc2CCCNC(=O)C(Cc2ccccc2)NC(=O)C(C)N(C)C1=O` (stereo not drawn) [compound 196], the Ki is over 10000 nM.

As to `CC(C)C1NCCOc2ccccc2C=CCNC(=O)C(Cc2ccccc2)NC(=O)C2(CCCC2)NC1=O` (stereo not drawn) [compound 200], the Ki fell in the range of 10 to 100 nM.

On to `CCCC1C(=O)N(C)C(C)C(=O)NC(Cc2ccccc2)C(=O)NCCCc2ccccc2OCCN1C` (stereo not drawn) [compound 201], for which the Ki lay within 100 to 10000 nM.

Turning to `CCCC1C(=O)N(C)C(C)C(=O)NC(Cc2ccccc2)C(=O)NCCCc2ccccc2OCCN1C(C)=O` (stereo not drawn) [compound 202], the inhibition constant Ki is over 10000 nM.

Take `CC(=O)N1CCOc2ccccc2C=CCNC(=O)C(Cc2ccccc2)NC(=O)C2(CCCC2)NC(=O)C1CC(C)C` (stereo not drawn) [compound 204]: the Ki is over 10000 nM.

As for `CCC(C)C1NCCCc2c(c(=O)n(C)c(=O)n2C)CCCNC(=O)C(Cc2ccccc2)NC(=O)C(C)N(C)C1=O` (stereo not drawn) [compound 206], the Ki is over 10000 nM.

As to `O=C1NC2(CCCC2)C(=O)NC(Cc2ccccc2)C(=O)NCC=Cc2ccccc2OCCNC1Cc1ccccn1` (stereo not drawn) [compound 210], the inhibitory constant (Ki) is over 1000 nM.

`O=C1NC2(CCCC2)C(=O)NC(Cc2ccccc2)C(=O)NCC=Cc2ccccc2OCCNC1Cc1c[nH]cn1` (stereo not drawn) [compound 219]: the Ki was in the range of 100 to 10000 nM.

Staying with this assay, now noted: binding activity at the human ghrelin receptor; [125I]-ghrelin displacement, hGHS-R1a/HEK-293 membranes; read-out: Ki.
As to `CCC(C)C1NCCOc2ccccc2CCCNC(=O)C(Cc2ccccc2)NC(=O)C(C(C)CC)N(C)C1=O` (single isomer, unassigned) [150b], the Ki was over 10000 nM.

Consider `CCC[C@@H]1NCCOc2ccccc2CCCNC(=O)[C@@H](Cc2ccccc2)NC(=O)CN(CC)C1=O` [compound 5], for which the Ki is 100 to 10000 nM.

Turning to `CCCCC1NC(=O)C(CCCC)NC(=O)C(C(C)C)NCCOc2ccccc2C=CCNC1=O` (stereo not drawn) [compound 12], the Ki lay within 100 to 10000 nM.

As for `CC(C)CC1NCCOc2ccccc2C=CCNC(=O)C(Cc2cccc3ccccc23)NC(=O)C2(CCCC2)NC1=O` (stereo not drawn) [compound 22], the inhibition constant (Ki) is 10 to 100 nM.

`CCC(C)C1NCCOc2ccccc2CCCNC(=O)C(C(c2ccccc2)c2ccccc2)NC(=O)C(C)N(C)C1=O` (stereo not drawn) [compound 29]: the Ki lay within 10 to 100 nM.

Consider `CCC(C)C1NCCOc2ccccc2CCCNC(=O)C(Cc2cscn2)NC(=O)C(C)N(C)C1=O` (stereo not drawn) [compound 33], for which the inhibition constant (Ki) fell in the range of 100 to 10000 nM.

Regarding `CCC(C)C1NCCOc2ccccc2CCCNC(=O)C(Cc2cccs2)NC(=O)C(C)N(C)C1=O` (stereo not drawn) [compound 34], the inhibition constant (Ki) is 10 to 100 nM.

With `CC(C)CC1NCCOCCNC(=O)C(Cc2ccccc2)NC(=O)C2(CCCC2)NC1=O` (stereo not drawn) [compound 44], the inhibition constant Ki is over 10000 nM.

As for `CCCC1NC(=O)C2(CCCC2)NC(=O)C(CC(C)C)NCCOc2ccccc2C=CCNC1=O` (stereo not drawn) [compound 48], the Ki is over 10000 nM.

On to `CCCC1NCCOc2ccccc2CCCNC(=O)C(CO)NC(=O)CN(C)C1=O` (stereo not drawn) [compound 54], for which the Ki is over 10000 nM.

Consider `CCCC1NCCOc2ccccc2CCCNC(=O)C(Cc2ccccc2)NC(=O)C(Cc2ccccc2)NC1=O` (stereo not drawn) [compound 65], for which the inhibition constant (Ki) is 1000 to 10000 nM.

For the compound `CCCC1NCCOc2ccccc2CCCNC(=O)C(Cc2ccccc2)NC(=O)C(C)(C)NC1=O` (stereo not drawn) [compound 66], the Ki fell in the range of 100 to 10000 nM.

For the compound `CCCC1NCCOc2ccccc2CCCNC(=O)C(Cc2ccccc2)NC(=O)C(CCCCN)NC1=O` (stereo not drawn) [compound 69], the inhibition constant Ki is over 10000 nM.

As to `CCCC1NCCOc2ccccc2CCCNC(=O)C(Cc2ccccc2)NC(=O)C(CCC(=O)O)NC1=O` (stereo not drawn) [compound 70], the inhibition constant (Ki) is over 10000 nM.

Consider `CCCC1NCCOc2ccccc2CCCNC(=O)C(Cc2ccccc2)NC(=O)C(CCC(=O)O)NC1=O` (stereo not drawn) [compound 71], for which the Ki is over 10000 nM.

In the case of `CN1CC(=O)NC(Cc2ccccc2)C(=O)NCCCc2ccccc2OCCNC(Cc2ccccc2)C1=O` (stereo not drawn) [compound 75], the Ki fell in the range of 100 to 10000 nM.

On to `CCCC1NCc2ccccc2Sc2ccccc2CNC(=O)C(Cc2ccccc2)NC(=O)CN(C)C1=O` (stereo not drawn) [compound 77], for which the inhibition constant Ki lay within 100 to 10000 nM.

As for `CCCC1NCC2CCC(CNC(=O)C(Cc3ccccc3)NC(=O)CN(C)C1=O)O2` (stereo not drawn) [compound 78], the inhibition constant (Ki) is over 10000 nM.

On to `CC(C)CC1NCCOc2ccccc2CCCNC(=O)C(C)NC(=O)C2(CCCC2)NC1=O` (stereo not drawn) [compound 87], for which the inhibition constant Ki was over 10000 nM.

For `CC(C)CC1NCCC#CCCNC(=O)C(Cc2ccccc2)NC(=O)C2(CCCC2)NC1=O` (stereo not drawn) [compound 106], the inhibition constant Ki was over 10000 nM.

With `CC(C)CC1NCc2cccc(c2)CCNC(=O)C(Cc2ccccc2)NC(=O)C2(CCCC2)NC1=O` (stereo not drawn) [compound 107], the Ki was over 10000 nM.

For `CC(C)CC1NCc2ccccc2Sc2ccccc2CNC(=O)C(Cc2ccccc2)NC(=O)C2(CCCC2)NC1=O` (stereo not drawn) [compound 108], the Ki fell in the range of 1000 to 10000 nM.

In the case of `CC(C)CC1NCCOc2cccnc2CCCNC(=O)C(Cc2ccccc2)NC(=O)C2(CCCC2)NC1=O` (stereo not drawn) [compound 109], the inhibition constant Ki fell in the range of 1000 to 10000 nM.

For the compound `CCOC(=O)CCC1NC(=O)C2(CCCC2)NC(=O)C(CC(C)C)NCCOc2ccccc2C=CCNC1=O` (stereo not drawn) [compound 116], the Ki is 1000 to 10000 nM.

For the compound `CCC1NCCOc2ccccc2CCCNC(=O)C(Cc2ccccc2)NC(=O)C(C)N(C)C1=O` (stereo not drawn) [compound 117], the inhibition constant (Ki) lay within 10 to 100 nM.

For `O=C1NCC=Cc2ccccc2OCCNC(C(c2ccccc2)c2ccccc2)C(=O)NC2(CCCC2)C(=O)NC1Cc1ccccc1` (stereo not drawn) [compound 129], the Ki was over 10000 nM.

As for `O=C1NC2(CCCC2)C(=O)NC(Cc2ccccc2)C(=O)NCC=Cc2ccccc2OCCNC1Cc1ccc2ccccc2c1` (stereo not drawn) [compound 131], the inhibitory constant (Ki) was in the range of 100 to 10000 nM.

As for `O=C1NC2(CCCC2)C(=O)NC(Cc2ccccc2)C(=O)NCC=Cc2ccccc2OCCNC1Cc1cscn1` (stereo not drawn) [compound 134], the inhibition constant (Ki) was 100 to 10000 nM.

Turning to `CCCC1NCCOc2ccccc2C=CCNC(=O)C(Cc2ccccc2)NC(=O)C2(CCCC2)NC1=O` (stereo not drawn) [compound 137], the inhibition constant Ki was in the range of 10 to 100 nM.

For the compound `CC(C)C1NCCOc2ccccc2C=CCNC(=O)C(Cc2ccccc2)NC(=O)C2(Cc3ccccc3C2)NC1=O` (stereo not drawn) [compound 142], the Ki fell in the range of 100 to 10000 nM.

With `CC(C)CC1NCCOc2ccccc2C=CCNC(=O)C(C(c2ccccc2)c2ccccc2)NC(=O)C2(CCCC2)NC1=O` (stereo not drawn) [compound 158], the Ki was over 1000 nM.

As to `CC(C)CC1NCCOc2ccccc2C=CCNC(=O)C(Cc2cscn2)NC(=O)C2(CCCC2)NC1=O` (stereo not drawn) [compound 163], the Ki was over 10000 nM.

Regarding `CC(C)CC1NCCOc2ccccc2C=CCNC(=O)C2(CCCC2)NC(=O)C2(CCCC2)NC1=O` (stereo not drawn) [compound 168], the inhibition constant (Ki) lay in the range of 100 to 10000 nM.

Take `CCC(C)C1NCCOc2ccccc2CCNC(=O)C(Cc2ccccc2)NC(=O)C(C)N(C)C1=O` (stereo not drawn) [compound 178]: the Ki is 100 to 10000 nM.

Regarding `CCC(C)C1NCCCc2ccccc2CCNC(=O)C(Cc2ccccc2)NC(=O)C(C)N(C)C1=O` (stereo not drawn) [compound 179], the inhibition constant Ki fell in the range of 100 to 10000 nM.

As to `CCC(C)C1NCCCCc2ccccc2CCNC(=O)C(Cc2ccccc2)NC(=O)C(C)N(C)C1=O` (stereo not drawn) [compound 180], the Ki was 100 to 10000 nM.

As for `CCC(C)C1NCCCCC=CCNC(=O)C(Cc2ccccc2)NC(=O)C(C)N(C)C1=O` (stereo not drawn) [compound 181], the Ki is over 10000 nM.

As to `CCC(C)C1NCCCCC=CCCNC(=O)C(Cc2ccccc2)NC(=O)C(C)N(C)C1=O` (stereo not drawn) [compound 183], the inhibitory constant (Ki) was over 10000 nM.

Take `CCC(C)C1NCCOCC=CCNC(=O)C(Cc2ccccc2)NC(=O)C(C)N(C)C1=O` (stereo not drawn) [compound 185]: the inhibition constant Ki lay within 100 to 10000 nM.

With `CCC(C)C1NCCc2ccccc2C=CCNC(=O)C(Cc2ccccc2)NC(=O)C(C)N(C)C1=O` (stereo not drawn) [compound 187], the inhibition constant Ki was 100 to 10000 nM.

With `CCC(C)C1NCCc2ccccc2C=CCCNC(=O)C(Cc2ccccc2)NC(=O)C(C)N(C)C1=O` (stereo not drawn) [compound 188], the Ki is over 1000 nM.

Values taken from patent USRE42013E1, “Macrocyclic modulators of the ghrelin receptor” (Tranzyme Pharma Inc., priority 2003, dated 2010).
